The values that follow come from patent US9951010B2, “Compounds as CRTH2 antagonist and uses thereof” (SUNSHINE LAKE PHARMA CO., LTD., priority 2014, dated 2018).

Structures can show the parent of a compound that is named as a salt.

This assay addresses T1, CRTH2 receptor (Homo sapiens, UniProt Q9Y5Y4).
T1 construct: expressed in transfected cells; host or cells: CHO-K1/G cells
T1 sequence (Q9Y5Y4 1-395): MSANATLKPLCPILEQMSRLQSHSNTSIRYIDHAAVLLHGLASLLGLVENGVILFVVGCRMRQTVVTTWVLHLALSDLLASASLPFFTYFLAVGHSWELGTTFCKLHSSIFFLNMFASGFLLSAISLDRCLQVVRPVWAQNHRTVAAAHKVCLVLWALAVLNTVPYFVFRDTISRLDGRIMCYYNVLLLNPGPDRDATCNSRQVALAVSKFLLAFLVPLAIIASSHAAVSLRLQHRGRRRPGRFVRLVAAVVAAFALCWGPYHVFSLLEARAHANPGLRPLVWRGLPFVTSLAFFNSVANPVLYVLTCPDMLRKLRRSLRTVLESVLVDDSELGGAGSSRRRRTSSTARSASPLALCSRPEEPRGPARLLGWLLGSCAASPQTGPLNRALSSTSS
As to the kind of experiment: FLIPR detection of inhibitory activity against CRTH2 (CHO-K1/G cells, PGD2 as agonist). The class given is cell-based. The settings on record: CHO-K1/G cells with stable expression of CRTH2 receptor, PGD2 at EC80, FLIPR. The method, then: The test compound was weighed accurately and then dissolved in a suitable amount of DMSO to prepare a stock solution at a concentration of 10 mM; after clear and transparent, the stock solution was subpackaged and cryostoraged at −20° C. for use. Before testing, the test compound was diluted with balanced salt solution (HBSS buffer, containing 4-(2-hydroxyethyl)piperazine-1-ethanesulfonicacid) at a concentration of 20 mM) to 5 times testing concentration.
CHO-K1/G cells with stable expression of CRTH2 receptor were prepared to 5 times testing concentration and seeded into 384-microwell plate, and incubated in an incubator at 37° C./5% CO2. After incubating for 18 hours, to the cells in 384-microwell plate was added 20 μL of dye followed by the addition of 10 μL of prepared test compound solution. And then the cell plate was incubated in the incubator at 37° C./5% CO2 for 1 hour, at last which was balanced at rt for 15 min. After adding 12.5 μL of positive agonist (PGD2) at a concentration of 5 times EC80 to each well of the cell plate, the RFU (fluorescence intensity) value of the test compound was detected.
The data were recorded from ScreenWorks (version 3.1), and collected and analyzed by using Excel and GraphPad Prism 6 software to calculate the values of IC50.
The IC50 is the concentration at which inhibition is half-maximal. Read a low IC50 as inhibition by little substance. `Cc1c(C2CCC(N(C)C(=O)c3ccc4ccccc4n3)CC2)c2cc(F)ccc2n1CC(=O)O` (single isomer, unassigned) [Example 17a, 2-(5-fluoro-2-methyl-3-(4-(N-methylquinoline-2-carboxamido)cyclohexyl)-1H-indol-1-yl)acetic acid hydrochloride] showed an IC50 of 600 nM. As for `Cc1c(C2CCC(N(C)C(=O)c3ccc4ccccc4n3)CC2)c2cc(F)ccc2n1CC(=O)O` (single isomer, unassigned) [Example 17b, 2-(5-fluoro-2-methyl-3-(4-(N-methylquinoline-2-carboxamido)cyclohexyl)-1H-indol-1-yl)acetic acid hydrochloride], the figure is 97.2 nM. As for `Cc1c(C2CCC(NC(=O)c3ccc4cccnc4n3)CC2)c2cc(F)ccc2n1CC(=O)O` (single isomer, unassigned) [Example 20, 2-(3-(4-(1,8-naphthyridine-2-carboxamido)cyclohexyl)-5-fluoro-2-methyl-1H-indol-1-yl)acetic acid hydrochloride], the figure is 39.8 nM. As for `Cc1c(C2CCC(NC(=O)c3cccc4ncccc34)CC2)c2cc(F)ccc2n1CC(=O)O` (single isomer, unassigned) [Example 26b, 2-(5-fluoro-2-methyl-3-(4-(quinoline-5-carboxamido)cyclohexyl)-1H-indol-1-yl)acetic acid hydrochloride], the figure is 83.9 nM. Turning to `Cc1c(C2CCC(NS(=O)(=O)c3ccc(F)cc3F)CC2)c2cc(F)ccc2n1CC(=O)O` (single isomer, unassigned) [Example 29b, 2-(3-(4-(2,4-difluorophenylsulfonamido)cyclohexyl)-5-fluoro-2-methyl-1H-indol-1-yl)acetic acid], the concentration for half-maximal inhibition (IC50) was found to be 79.5 nM. As for `O=C(O)Cn1cc(C2CCN(S(=O)(=O)c3ccc(F)cc3)CC2)c2ccccc21` [Control compound, reference compound], the figure is 6190 nM; as for `Cc1c(C2CCN(C(=O)c3cccc4ccccc34)CC2)c2cc(F)ccc2n1CC(=O)O` [Example 2, 2-(3-(1-(1-naphthoyl)piperidin-4-yl)-5-fluoro-2-methyl-1H-indol-1-yl)acetic acid], 674 nM. As for `Cc1c(C2CCC(NC(=O)c3cccc4ccccc34)CC2)c2cc(F)ccc2n1CC(=O)O` (stereo not drawn) [Example 3, 2-(3-(4-(1-naphthamido)cyclohexyl)-5-fluoro-2-methyl-1H-indol-1-yl)acetic acid], the figure is 265 nM. As for `Cc1c(C2CCN(C(=O)c3ccc4ccccc4n3)CC2)c2cc(F)ccc2n1CC(=O)O` [Example 4, 2-(5-fluoro-2-methyl-3-(1-(quinoline-2-carbonyl)piperidin-4-yl)-1H-indol-1-yl)acetic acid hydrochloride], the figure is 306 nM; as for `Cc1c(C2=CCCN(C(=O)c3ccc4ccccc4n3)C2)c2cc(F)ccc2n1CC(=O)O` [Example 7, 2-(5-fluoro-2-methyl-3-(1-(quinoline-2-carbonyl)-1,2,5,6-tetrahydropyridin-3-yl)-1H-indol-1-yl)acetic acid hydrochloride], 776 nM; as for `Cc1c(C2=CCN(Cc3ccc4ccccc4n3)CC2)c2cc(F)ccc2n1CC(=O)O` [Example 8, 2-(5-fluoro-2-methyl-3-(1-(quinolin-2-yl)methyl-1,2,3,6-tetrahydropyridin-4-yl)-1H-indol-1-yl)acetic acid dihydrochloride], 657 nM. `Cc1c(C2=CCN(C(=O)NCc3ccc(F)cc3F)CC2)c2cc(F)ccc2n1CC(=O)O` [Example 9a, 2-(3-(1-((2,4-difluorobenzyl)carbamoyl)-1,2,3,6-tetrahydropyridin-4-yl)-5-fluoro-2-methyl-1H-indol-1-yl)acetic acid] returned an IC50 of 192 nM. As for `Cc1c(C2CCC(NC(=O)c3cccc4c(F)cccc34)CC2)c2cc(F)ccc2n1CC(=O)O` (stereo not drawn) [Example 10, 2-(5-fluoro-3-(4-(5-fluoro-1-naphthamido)cyclohexyl)-2-methyl-1H-indol-1-yl)acetic acid], the figure is 545 nM. As for `Cc1c(C2CCC(NC(=O)NCc3ccc(F)cc3F)CC2)c2cc(F)ccc2n1CC(=O)O` (stereo not drawn) [Example 16, 2-(3-(4-(3-(2,4-difluorobenzyl)ureido)cyclohexyl)-5-fluoro-2-methyl-1H-indol-1-yl)acetic acid], the figure is 969 nM. As for `Cc1c(C2CC(NC(=O)c3ccc4ccccc4n3)C2)c2cc(F)ccc2n1CC(=O)O` (stereo not drawn) [Example 21, 2-(5-fluoro-2-methyl-3-(3-(quinoline-2-carboxamido)cyclobutyl)-1H-indol-1-yl)acetic acid hydrochloride], the figure is 185 nM; as for `Cc1c(C2=CCCN(C(=O)c3cccc4ccccc34)C2)c2cc(F)ccc2n1CC(=O)O` [Example 23, 2-(3-(1-(1-naphthoyl)-1,2,5,6-tetrahydropyridin-3-yl)-5-fluoro-2-methyl-1H-indol-1-yl)acetic acid], 866 nM. `Cc1c(C2CCC(N(C)S(=O)(=O)c3ccc(F)cc3)CC2)c2cc(F)ccc2n1CC(=O)O` (stereo not drawn) [Example 28, 2-(5-fluoro-3-(4-(4-fluoro-N-methylphenylsulfonamido)cyclohexyl)-2-methyl-1H-indol-1-yl) acetic acid] displayed an IC50 of 138 nM. As for `Cc1c(C2CC(NS(=O)(=O)c3ccc(F)cc3)C2)c2cc(F)ccc2n1CC(=O)O` (stereo not drawn) [Example 32, 2-(5-fluoro-3-(3-(4-fluorophenylsulfonamido)cyclobutyl)-2-methyl-1H-indol-1-yl)acetic acid], the figure is 33.7 nM; as for `Cc1c(C2CCN(S(=O)(=O)c3ccc(Cl)cc3F)CC2)c2cc(F)ccc2n1CC(=O)O` [Example 34, 2-(5-fluoro-3-(1-((4-chloro-2-fluorophenyl)sulfonyl)piperidin-4-yl)-2-methyl-1H-indol-1-yl) acetic acid], 211 nM; as for `Cc1c(C2CCN(S(=O)(=O)c3ccc(F)cc3Cl)CC2)c2cc(F)ccc2n1CC(=O)O` [Example 35, 2-(5-fluoro-3-(1-((2-chloro-4-fluorophenyl)sulfonyl)piperidin-4-yl)-2-methyl-1H-indol-1-yl) acetic acid], 333 nM. As for `Cc1c(C2CCN(S(=O)(=O)c3ccc(Cl)cc3Cl)CC2)c2cc(F)ccc2n1CC(=O)O` [Example 36, 2-(5-fluoro-3-(1-((2,4-dichlorophenyl)sulfonyl)piperidin-4-yl)-2-methyl-1H-indol-1-yl)acetic acid], the figure is 422 nM; as for `Cc1c(C2CCN(S(=O)(=O)c3ccc(O)cc3)CC2)c2cc(F)ccc2n1CC(=O)O` [Example 37, 2-(5-fluoro-3-(1-((4-hydroxyphenyl)sulfonyl)piperidin-4-yl)-2-methyl-1H-indol-1-yl)acetic acid], 137 nM. The compound `Cc1c(C2CCN(S(=O)(=O)c3ccccc3F)CC2)c2cc(F)ccc2n1CC(=O)O` [Example 39, 2-(5-fluoro-3-(1-((2-fluorophenyl)sulfonyl)piperidin-4-yl)-2-methyl-1H-indol-1-yl)acetic acid] registered a 50% inhibitory concentration (IC50) of 106 nM. Consider `Cc1c(C2CCCN(S(=O)(=O)c3ccc(F)cc3)C2)c2cc(F)ccc2n1CC(=O)O` (stereo not drawn) [Example 40, 2-(5-fluoro-3-(1-((4-fluorophenyl)sulfonyl)piperidin-3-yl)-2-methyl-1H-indol-1-yl)acetic acid], for which the 50% inhibitory concentration (IC50) is 17.4 nM.

The compound `Cc1c(C2CCN(S(=O)(=O)c3cccc4ccccc34)CC2)c2cc(F)ccc2n1CC(=O)O` [Example 42, 2-(5-fluoro-2-methyl-3-(1-(naphthalen-1-ylsulfonyl)piperidin-4-yl)-1H-indol-1-yl)acetic acid] displayed a half-inhibitory concentration (IC50) of 283 nM. Against the preceding compound, the IC50 is about 16-fold higher. As for `Cc1c(C2CCN(S(=O)(=O)c3ccccc3)CC2)c2cc(F)ccc2n1CC(=O)O` [Example 46, 2-(5-fluoro-2-methyl-3-(1-(phenylsulfonyl)piperidin-4-yl)-1H-indol-1-yl)acetic acid], the figure is 317 nM; as for `Cc1c(C2CCN(S(=O)(=O)c3ccc(Cl)cc3)CC2)c2cc(F)ccc2n1CC(=O)O` [Example 47, 2-(3-(1-((4-chlorophenyl)sulfonyl)piperidin-4-yl)-5-fluoro-2-methyl-1H-indol-1-yl)acetic acid], 139 nM.
